Tests used:
cultured myocytes = tested on: cultured myocytes; set-up: method as in PMID 22425903; details: cited from earlier work
[1] = tested on: membrane potential of pig heart mitochondria; test: Mitochondrial membrane potential assay (JC-10) in pig heart mitochondria; type: biochemical; details: JC-10, 5 min incubation
Text: Next we analyzed the mechanism of action of DS16570511. The previous studies implicated two possible inhibitory mechanisms for the mitochondrial Ca^2+ uptake: (1) direct blockade of the calcium uniporter and (2) disruption of the membrane potential.[20],[21] Mitochondrial Ca^2+ uptake is mediated by electrical potential across the mitochondrial inner membrane, which is generated by the oxidative phosphorylation system. […] To examine effects on the mitochondrial membrane potential, fluorescent indicator JC-10 was used in mitochondria from pig heart.
(a) Effect of FCCP on Ca^2+ uptake of pig heart mitochondria. […] Relative membrane potential 0 or 100% is defined as value of 1 μM FCCP-treated mitochondria or vehicle-treated mitochondria, respectively. Data are mean with S.E.M. from three (a) or four (b) independent samples.
Pig heart mitochondria were prepared as described above and suspended in the swelling buffer containing 1 μM JC-10. The protein concentration of the solution was 5 mg/ml. Five minutes after incubation of the mitochondria with DS16570511 at room temperature, fluorescence intensities were measured by a FlexStation 3 (Molecular Devices, LLC, Sunnyvale, CA, USA) using the green channel (excitation/emission wavelength: 485/538 nm) or the red channel (excitation/emission wavelength: 485/612 nm).

[2] = molecular target: T1, mitochondrial calcium uniporter (Homo sapiens, UniProt Q8NE86); test: Ca2+ uptake of isolated mitochondria from HEK293A cells (aequorin luminescence); type: biochemical; set-up: isolated mitochondria from HEK293A cells were used; endogenous in cells; host or cells: mitochondria isolated from HEK293A cells stably expressing mitochondria-targeted aequorin
T1 sequence (Q8NE86 51-351): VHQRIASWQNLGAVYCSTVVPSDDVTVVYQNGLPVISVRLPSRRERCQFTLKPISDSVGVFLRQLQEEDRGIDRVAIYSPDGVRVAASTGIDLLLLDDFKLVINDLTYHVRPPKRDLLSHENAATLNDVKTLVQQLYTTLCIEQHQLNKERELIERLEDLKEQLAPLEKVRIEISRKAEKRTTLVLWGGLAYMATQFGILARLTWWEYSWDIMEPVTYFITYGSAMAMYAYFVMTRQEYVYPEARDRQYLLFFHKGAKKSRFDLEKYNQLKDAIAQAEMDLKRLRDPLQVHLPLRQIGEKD
T1 sequence (Q9H4I9 48-107 partner limits assumed): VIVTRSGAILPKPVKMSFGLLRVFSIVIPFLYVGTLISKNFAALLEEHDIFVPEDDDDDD
Description: Mitochondrial Ca^2+ uptake activity is regulated by cytosolic protein kinase signaling,[19] raising the possibility that HTS hits contained indirect inhibitors of the uniporter, such as inhibitors of cytosolic signaling. To examine the direct inhibitory effect of the compounds on the mitochondrial Ca^2+ uptake, isolated mitochondria from HEK293A cells were used. Ca^2+ uptake of the isolated mitochondria was observed as a rapid increase in the luminescence level after application of 100 μM Ca^2+ (Figure 2a).
Figure 2 DS16570511 inhibits Ca^2+ uptake in isolated mitochondria from HEK293A cells. (a) Representative raw data of Ca^2+ uptake in isolated mitochondria. (b) Effect of DS16570511 or Ru360 on mitochondrial Ca^2+ uptake. The area under the curve of temporal aequorin activities is used for calculation of inhibitory activities. Inhibition 0 or 100% is defined as a value of […], respectively. Data are mean with S.E.M. from three independent samples.
To monitor Ca^2+ uptake activity of isolated mitochondria, mitochondria were prepared from the cells (1×10^8 cells) stably expressing mitochondria-targeted aequorin by using a mitochondria isolation kit. […] The luminescence levels were detected as described above.

Hela cells = tested on: Hela cells; set-up: method as in PMID 17471180; details: cited from earlier work
[3] = tested on: recombinant MCU multimers; set-up: method as in PMID 26285678; details: lipid bilayer; cited from earlier work
[4] = tested on: Ca2+ uptake of rat heart mitochondria; test: Ca2+ uptake assay using isolated rat heart mitochondria (atomic absorbance spectrometer); type: biochemical; details: 100 μM CaCl2; read-out: IC50, inhibition of Ca2+ uptake of rat heart mitochondria
Description: (§1) We then asked whether DS16570511 inhibits Ca^2+ uptake in isolated mitochondria from animal heart. An atomic absorbance spectrometer-based detection method was employed to analyze intramitochondrial Ca^2+ levels. We prepared freshly isolated mitochondria from pig heart, and the mitochondria were incubated with 100 μM CaCl2.
Figure 3 DS16570511 inhibits Ca^2+ uptake in isolated heart mitochondria. (a) Effect of RuR on Ca^2+ uptake of pig heart mitochondria. […] Data are mean with S.E.M. from three independent samples. (b) Inhibition rate of RuR or DS16570511 on Ca^2+ uptake of pig heart mitochondria. Inhibition 0 or 100% is defined as a value of Ca^2+-untreated mitochondria or Ca^2+-treated mitochondria, respectively. Data are mean with S.E.M. from three independent samples. (c) Inhibition rate of RuR or DS16570511 on Ca^2+ uptake of rat heart mitochondria. Data are mean with S.E.M./variation from three or two independent samples for DS16570511 or RuR, respectively.
Mitochondria were isolated by using the mitochondria isolation kit and then dissolved in the swelling buffer. The protein concentration of the mitochondrial solution was 5 mg/ml. […] The solution was then diluted by water, and Ca^2+ concentration of the solution was measured by atomic absorbance spectrometer (Hitachi High-Technologies Corporation, Z-2710, Tokyo, Japan).

[5] = tested on: Ca2+ uptake of pig heart mitochondria; test: Ca2+ uptake assay using isolated pig heart mitochondria (atomic absorbance spectrometer); type: biochemical; details: 100 μM CaCl2
Description: as §1
(a) Effect of RuR on Ca^2+ uptake of pig heart mitochondria. […] Data are mean with S.E.M. from three independent samples. (b) Inhibition rate of RuR or DS16570511 on Ca^2+ uptake of pig heart mitochondria. Inhibition 0 or 100% is defined as a value of Ca^2+-untreated mitochondria or Ca^2+-treated mitochondria, respectively. Data are mean with S.E.M. from three independent samples. (c) Inhibition rate of RuR or DS16570511 on Ca^2+ uptake of rat heart mitochondria. Data are mean with S.E.M./variation from three or two independent samples for DS16570511 or RuR, respectively.
Mitochondria were isolated by using the mitochondria isolation kit and then dissolved in the swelling buffer. The protein concentration of the mitochondrial solution was 5 mg/ml. Thirty minutes after application of CaCl2 (final concentration of 100 μM) to the solution, the mitochondria were collected by centrifugation (3000 g) at 4 °C. The pellets were resuspended in the swelling buffer containing 1 μM RuR. After collection of the mitochondria by centrifugation (3000 g), the pellets were dried and dissolved by 40 μl of sulfuric acid at 95 °C.

CS(=O)(=O)O.CS(=O)(=O)O.O=S1(=O)CCN(Cc2cc(NCC3CCOCC3)c3[nH]c(-c4ccccc4)cc3c2)CC1 [NecroX-5]
effect on Ca2+ accumulation (cultured myocytes): attenuate

N.N.N.N.N.N.N.N.O=C[O-].O=C[O-].[O-2].[Ru+3].[Ru+4] [Ru360, Ruthenium 360, reference compound]
effect on mitochondrial membrane potential [1]: no effect
IC50 [2]: 20 nM

N=C(N)SCCc1ccc(OCc2ccc([N+](=O)[O-])cc2)cc1 [KB-R7943]
effect on agonist-induced mitochondrial Ca2+ influx (Hela cells): inhibit

N#CC(C#N)=NNc1ccc(OC(F)(F)F)cc1 [FCCP, carbonyl cyanide-p-trifluoromethoxyphenylhydrazone]
effect on mitochondrial membrane potential [1]: disruption of the potential in a dose-dependent manner

N.N.N.N.N.N.N.N.N.N.N.N.N.N.[Cl-].[Cl-].[Cl-].[Cl-].[Cl-].[Cl-].[O-2].[O-2].[Ru+3].[Ru+3].[Ru+4] [RuR, Ruthenium Red]
effect on Ca2+ channel activity mediated by recombinant MCU multimers [3]: inhibited
IC50 [4]: 100 nM
effect on Ca2+ uptake activity of isolated pig heart mitochondria (in words) [5]: fully blocked
IC50 ([5]; read-out: IC50, inhibition of Ca2+ uptake of pig heart mitochondria): 30 nM

Source: PMC5511861, “DS16570511 is a small-molecule inhibitor of the mitochondrial calcium uniporter” (Cell Death Discovery, 2017)
